From patent US20260365628A1, “SUBSTITUTED 3,4-DIHYDROQUINOLINONE INHIBITORS OF TSHR” (Septerna, Inc., priority 2022, published 2026)

Molecular target: T1, hTSHR (Homo sapiens, UniProt P16473)
T1 construct: expressed in transfected cells
Assay: hTSHR TR-FRET cAMP Assay (inhibition of M22-stimulated cAMP production)
Format: cell-based
Conditions: Expi293F Inducible cells stably expressing hTSHR; cAMP HTRF; stimulated with EC80 of anti-TSHR antibody M22; 15 min compound preincubation, 30 min at 37° C.; read-out: Activity (IC50 bins)
How it was run: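 Readout was a cAMP HTRF ratio of 655/620 nm after lysis, scaled between the EC80 M22 signal (0% inhibition) and no-agonist vehicle (100%). Frozen induced Expi293F-hTSHR cells saw test compounds (0.5% DMSO) for 15 min at 37 °C before 30 min of M22 stimulation at EC80.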

T1 sequence (P16473 21-764): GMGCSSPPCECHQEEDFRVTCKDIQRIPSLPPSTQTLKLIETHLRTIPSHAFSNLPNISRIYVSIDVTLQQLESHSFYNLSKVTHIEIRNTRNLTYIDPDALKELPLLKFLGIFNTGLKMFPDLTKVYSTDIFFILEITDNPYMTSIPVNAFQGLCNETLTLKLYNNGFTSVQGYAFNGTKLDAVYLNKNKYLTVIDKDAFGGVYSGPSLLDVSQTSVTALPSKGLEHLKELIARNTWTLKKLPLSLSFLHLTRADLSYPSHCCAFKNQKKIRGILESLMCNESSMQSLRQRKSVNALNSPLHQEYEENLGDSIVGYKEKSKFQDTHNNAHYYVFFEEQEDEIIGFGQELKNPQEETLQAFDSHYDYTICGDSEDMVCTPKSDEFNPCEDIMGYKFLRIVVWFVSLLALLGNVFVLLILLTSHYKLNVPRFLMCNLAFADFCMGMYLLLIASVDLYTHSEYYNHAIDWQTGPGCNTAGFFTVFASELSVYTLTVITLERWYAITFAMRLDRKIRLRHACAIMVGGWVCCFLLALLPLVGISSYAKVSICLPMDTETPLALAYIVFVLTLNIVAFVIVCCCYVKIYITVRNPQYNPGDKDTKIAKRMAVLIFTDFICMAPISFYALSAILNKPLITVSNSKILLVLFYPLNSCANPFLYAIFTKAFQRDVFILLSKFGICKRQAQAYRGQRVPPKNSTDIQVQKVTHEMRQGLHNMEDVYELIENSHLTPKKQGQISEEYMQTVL

| SMILES | IC50 [µM] |
| --- | --- |
| C[C@@H](c1cccc(OC(F)(F)F)c1)n1c(=O)cnc2cc(NC(=O)N[C@H]3C[C@@H](C(F)(F)F)C3)ccc21 [Example 224, 1-(2-oxo-1-((S)-1-(3-(trifluoromethoxy)phenyl)ethyl)-1,2-dihydroquinoxalin-6-yl)-3-((1s,3S)-3-(trifluoromethyl)cyclobutyl)urea] | 0.1 to 1 |
| C[C@@H](c1cccc(OC(F)(F)F)c1)n1c(=O)cnc2cc(NC(=O)NC3(C(F)(F)F)CC(F)(F)C3)ccc21 [Example 225, (S)-1-(3,3-difluoro-1-(trifluoromethyl)cyclobutyl)-3-(2-oxo-1-(1-(3-(trifluoromethoxy)phenyl)ethyl)-1,2-dihydroquinoxalin-6-yl)urea] | 0.1 to 1 |
| C[C@H]1Oc2cc(NC(=O)NC3(C)CCC3)ccc2N(Cc2cccc(C(F)(F)F)n2)C1=O [Example 226, 1-[(2R)-2-methyl-3-oxo-4-{[6-(trifluoromethyl)pyridin-2-yl]methyl}-2H-1,4-benzoxazin-7-yl]-3-(1-methylcyclobutyl)urea] | < 0.1 |
| C[C@H]1Oc2cc(NC(=O)NC3(C)CCCC3)ccc2N(Cc2cccc(C(F)(F)F)n2)C1=O [Example 227, (R)-1-(2-methyl-3-oxo-4-((6-(trifluoromethyl)pyridin-2-yl)methyl)-3,4-dihydro-2H-benzo[b][1,4]oxazin-7-yl)-3-(1-methylcyclopentyl) urea] | < 0.1 |
| C[C@H]1Oc2cc(NC(=O)NC3CCCCC3)ccc2N(Cc2cccc(C(F)(F)F)n2)C1=O [Example 228, (R)-1-cyclohexyl-3-(2-methyl-3-oxo-4-((6-(trifluoromethyl)pyridin-2-yl)methyl)-3,4-dihydro-2H-benzo[b][1,4]oxazin-7-yl)urea] | < 0.1 |
| C[C@H]1Oc2cc(NC(=O)NC3(C)CCCCC3)ccc2N(Cc2cccc(C(F)(F)F)n2)C1=O [Example 229, (R)-1-(2-methyl-3-oxo-4-((6-(trifluoromethyl)pyridin-2-yl)methyl)-3,4-dihydro-2H-benzo[b][1,4]oxazin-7-yl)-3-(1-methylcyclohexyl) urea] | < 0.1 |
| C[C@H]1Oc2cc(NC(=O)NC3CC4CC4C3)ccc2N(Cc2cccc(C(F)(F)F)n2)C1=O (stereo partly drawn) [Example 230, 1-(bicyclo[3.1.0]hexan-3-yl)-3-((R)-2-methyl-3-oxo-4-((6-(trifluoromethyl)pyridin-2-yl)methyl)-3,4-dihydro-2H-benzo[b][1,4]oxazin-7-yl)urea] | 0.1 to 1 |
| C[C@H]1Oc2cc(NC(=O)NC3(C)CC(F)(F)C3)ccc2N(Cc2cccc(C(F)(F)F)n2)C1=O [Example 231, (R)-1-(3,3-difluoro-1-methylcyclobutyl)-3-(2-methyl-3-oxo-4-((6-(trifluoromethyl)pyridin-2-yl)methyl)-3,4-dihydro-2H-benzo[b][1,4]oxazin-7-yl)urea] | 0.1 to 1 |
| C[C@H]1Oc2cc(NC(=O)NC3(C(F)(F)F)CCC3)ccc2N(Cc2cccc(C(F)(F)F)n2)C1=O [Example 232, (R)-1-(2-methyl-3-oxo-4-((6-(trifluoromethyl)pyridin-2-yl)methyl)-3,4-dihydro-2H-benzo[b][1,4]oxazin-7-yl)-3-(1-(trifluoromethyl)cyclobutyl)urea] | 0.1 to 1 |
| COCC1(NC(=O)Nc2ccc3c(c2)O[C@H](C)C(=O)N3Cc2cccc(C(F)(F)F)n2)CCC1 [Example 233, (R)-1-(1-(methoxymethyl)cyclobutyl)-3-(2-methyl-3-oxo-4-((6-(trifluoromethyl)pyridin-2-yl)methyl)-3,4-dihydro-2H-benzo[b][1,4]oxazin-7-yl)urea] | 0.1 to 1 |
| C[C@H]1Oc2cc(NC(=O)NC3(C(F)(F)F)CCCC3)ccc2N(Cc2cccc(C(F)(F)F)n2)C1=O [Example 234, (R)-1-(2-methyl-3-oxo-4-((6-(trifluoromethyl)pyridin-2-yl)methyl)-3,4-dihydro-2H-benzo[b][1,4]oxazin-7-yl)-3-(1-(trifluoromethyl)cyclopentyl)urea] | < 0.1 |
| C[C@H]1Oc2cc(NC(=O)NC3CCC(F)(F)CC3)ccc2N(Cc2cccc(C(F)(F)F)n2)C1=O [Example 235, (R)-1-(4,4-difluorocyclohexyl)-3-(2-methyl-3-oxo-4-((6-(trifluoromethyl)pyridin-2-yl)methyl)-3,4-dihydro-2H-benzo[b][1,4]oxazin-7-yl)urea] | 0.1 to 1 |
| C[C@H]1Oc2cc(NC(=O)NC(C)(C)CCO)ccc2N(Cc2ccccc2)C1=O [Example 236, (R)-1-(4-benzyl-2-methyl-3-oxo-3,4-dihydro-2H-benzo[b][1,4]oxazin-7-yl)-3-(4-hydroxy-2-methylbutan-2-yl)urea] | 0.1 to 1 |
| C[C@H]1Oc2cc(NC(=O)NC3CCCC3)ccc2N(Cc2ccccc2)C1=O [Example 237, (R)-1-(4-benzyl-2-methyl-3-oxo-3,4-dihydro-2H-benzo[b][1,4]oxazin-7-yl)-3-cyclopentylurea] | < 0.1 |
| C[C@H]1Oc2cc(NC(=O)NC(C)(C)[C@H]3C[C@@H](O)C3)ccc2N(Cc2ccccc2)C1=O [Example 238] | > 1 |
| CC(C)(O)CNC(=O)Nc1ccc2c(c1)ncc(=O)n2Cc1cccc(OC(F)(F)F)c1 [Example 239, 1-(2-hydroxy-2-methylpropyl)-3-(2-oxo-1-(3-(trifluoromethoxy)benzyl)-1,2-dihydroquinoxalin-6-yl)urea] | > 1 |

| SMILES | IC50 [µM] |
| --- | --- |
| CC(C)(C)CNC(=O)Nc1ccc2c(c1)ncc(=O)n2Cc1cccc(OC(F)(F)F)c1 [Example 240, 1-neopentyl-3-(2-oxo-1-(3-(trifluoromethoxy)benzyl)-1,2-dihydroquinoxalin-6-yl)urea] | 0.1 to 1 |
| CC(C)(C#N)CNC(=O)Nc1ccc2c(c1)ncc(=O)n2Cc1cccc(OC(F)(F)F)c1 [Example 241, 1-(2-cyano-2-methylpropyl)-3-(2-oxo-1-(3-(trifluoromethoxy)benzyl)-1,2-dihydroquinoxalin-6-yl)urea] | > 1 |
| CC(C)(CO)CNC(=O)Nc1ccc2c(c1)ncc(=O)n2Cc1cccc(OC(F)(F)F)c1 [Example 242, 1-(3-hydroxy-2,2-dimethylpropyl)-3-(2-oxo-1-(3-(trifluoromethoxy)benzyl)-1,2-dihydroquinoxalin-6-yl)urea] | > 1 |
| CC(C)(CC(F)(F)F)NC(=O)Nc1ccc2c(c1)ncc(=O)n2Cc1cccc(OC(F)(F)F)c1 [Example 243, 1-(2-oxo-1-(3-(trifluoromethoxy)enzyl)-1,2-dihydroquinoxalin-6-yl)-3-(4,4,4-trifluoro-2-methylbutan-2-yl)urea] | 0.1 to 1 |
| CC(C)(CNC(=O)Nc1ccc2c(c1)ncc(=O)n2Cc1cccc(OC(F)(F)F)c1)C(F)(F)F [Example 244, 1-(2-oxo-1-(3-(trifluoromethoxy)benzyl)-1,2-dihydroquinoxalin-6-yl)-3-(3,3,3-trifluoro-2,2-dimethylpropyl) urea] | 0.1 to 1 |
| CC(C)(CC#N)NC(=O)Nc1ccc2c(c1)ncc(=O)n2Cc1cccc(OC(F)(F)F)c1 [Example 245, 1-(1-cyano-2-methylpropan-2-yl)-3-(2-oxo-1-(3-(trifluoromethoxy)enzyl)-1,2-dihydroquinoxalin-6-yl)urea] | > 1 |
| CC(c1cccc(C2CCC2)c1)n1c(=O)cnc2cc(NC(=O)NC(C)(C)C)ccc21 (centres unmarked) [Example 246, 1-(tert-butyl)-3-(1-(1-(3-cyclobutylphenyl)ethyl)-2-oxo-1,2-dihydroquinoxalin-6-yl)urea] | 0.1 to 1 |
| CC(c1cc(F)cc(OC(F)(F)F)c1)n1c(=O)cnc2cc(NC(=O)NC(C)(C)C)ccc21 (centres unmarked) [Example 247, 1-(tert-butyl)-3-(1-(1-(3-fluoro-5-(tri-fluoromethoxy)phenyl)ethyl)-2-oxo-1,2-dihydro-quinoxalin-6-yl)urea] | 0.1 to 1 |
| CC(c1cccc(CCC2COC2)c1)n1c(=O)cnc2cc(NC(=O)NC(C)(C)C)ccc21 (centres unmarked) [Example 248, 1-(tert-butyl)-3-(1-(1-(3-(2-(oxetan-3-yl)ethyl)phenyl)ethyl)-2-oxo-1,2-dihydro-quinoxalin-6-yl)urea] | > 1 |
| CC(c1ccc2cnn(CCC(F)(F)F)c2c1)n1c(=O)cnc2cc(NC(=O)NC(C)(C)C)ccc21 (centres unmarked) [Example 249, 1-(tert-butyl)-3-(2-oxo-1-(1-(1-(3,3,3-trifluoropropyl)-1H-indazol-6-yl)ethyl)-1,2-dihydro-quinoxalin-6-yl)urea] | > 1 |
| CC(c1cccc(CCOCc2ccncc2)c1)n1c(=O)cnc2cc(NC(=O)NC(C)(C)C)ccc21 (centres unmarked) [Example 250, 1-(tert-butyl)-3-(2-oxo-1-(1-(3-(2-(pyridin-4-ylmethoxy)ethyl)phenyl)ethyl)-1,2-dihydro-quinoxalin-6-yl)urea] | > 1 |
| CC(c1cccc2c1cnn2CCC(F)(F)F)n1c(=O)cnc2cc(NC(=O)NC(C)(C)C)ccc21 (centres unmarked) [Example 251, 1-(tert-butyl)-3-(2-oxo-1-(1-(1-(3,3,3-trifluoropropyl)-1H-indazol-4-yl)ethyl)-1,2-dihydro-quinoxalin-6-yl)urea] | > 1 |
| CC(c1cccc2ncccc12)n1c(=O)cnc2cc(NC(=O)NC(C)(C)C)ccc21 (centres unmarked) [Example 252, 1-(tert-butyl)-3-(2-oxo-1-(1-(quinolin-5-yl)ethyl)-1,2-dihydro-quinoxalin-6-yl)urea] | > 1 |
| CC(c1cc(C(F)(F)F)ccn1)n1c(=O)cnc2cc(NC(=O)NC(C)(C)C)ccc21 (centres unmarked) [Example 253, 1-(tert-butyl)-3-(2-oxo-1-(1-(4-(trifluoromethyl)pyridin-2-yl)ethyl)-1,2-dihydro-quinoxalin-6-yl)urea] | > 1 |
| CC(c1nc(Cl)ccc1Cl)n1c(=O)cnc2cc(NC(=O)NC(C)(C)C)ccc21 (centres unmarked) [Example 254, 1-(tert-butyl)-3-(1-(1-(3,6-dichloropyridin-2-yl)ethyl)-2-oxo-1,2-dihydro-quinoxalin-6-yl)urea] | 0.1 to 1 |
| C[C@H]1Oc2cc(NC(=O)NC3(C)CCC3)ccc2N([C@@H](C)c2ccccc2)C1=O [Example 255, 1-((R)-2-methyl-3-oxo-4-((S)-1-phenylethyl)-3,4-dihydro-2H-benzo[b][1,4]oxazin-7-yl)-3-(1-methylcyclobutyl)urea] | < 0.1 |
